Source: US5026836A, “6-sulfenamide, 6-sulfinamide and 6-sulfonamide purines, purine nucleosides, purine nucleotides, pharmaceutical compositions, and processes of making” (priority 1988, dated 1991)
Entries after “also recorded” stand apart in the source; their conditions may differ. Like-named read-outs stand apart in the source and are kept apart here.

Legend:
L1210 cells [1] = test: Bioassay of viable L1210 cells in brain after intracranial inoculation and ip drug; type: in vivo, mouse; settings: for Residual cells (% of control brain): 24 hr after single ip dose (mg/kg): Methotrexate 12, Adriamycin 3, 6-Mercaptopurine 160, Cytosine Arabinoside 1200, Cyclophosphamide 140, Compound 19 173, Tiazofurin 1200, BCNU 20; for intracranial activity: intracranial L1210; for Activity against I.C. L1210 cells, Cell Kill: ip dosage: Compound 18 22 mg/kg, Compound 19 173 mg/kg, Compound 20 62 mg/kg; for crossing of blood brain barrier / CNS penetration (words): mouse, in vivo
Excerpt: BDF1 mice were inoculated intracranially on day 0 with 1×10^5 L1210 cells. […] 24 hr after drug delivery the brains were collected, homogenized, and injected ip into untreated mice. Each mouse received the equivalent of half a brain. Thereafter, life span was monitored and, using inoculum-response data as a base of comparison, estimates were made of the numbers of viable cells in treated and control brains.

[2] = tested on: Human Colon Adenocarcinoma CX-1; settings: data from Goldin et al 1981; activity indicated at ≤20; cited from earlier work
[3] = tested on: drug resistant cell lines; settings: background knowledge; cited from earlier work
adenocarcinoma = settings: background; cited from earlier work
[4] = Solubility (maximum solubility); type: physicochemical
[5] = Toxicity / maximum tolerated dosage in mice; type: in vivo; settings: mouse, in vivo, single QD day 1 ip, L1210-inoculated BDF1 mice, read-out: Max. tolerated dosage
Method: In Example N other compounds of the invention were tested against L1210 cells. […] Activity in Table 14-a is tabulated as both increases in life span and as cells surviving treatment and that in table 14-b as T/C.

L1210 cells [6] = test: Life span of BDF1 mice inoculated ip with 10^6 L1210 leukemia cells; type: in vivo, mouse
Method: As illustrative examples of use of the compounds of the invention the following examples are given. […] These standard tests utilize protocols developed under the auspices of the Developmental Therapeutics Program, Division of Cancer Treatment, National Cancer Institute, Bethesda, Md., U.S.A. Except as otherwise indicated the tests conform to these protocols and are evaluated utilizing criteria defined by the protocols.
(§1) Values below 25% are considered capable of producing effective therapy, those below 10% are considered good and those below 5% are considered very good. This expresses the percent of the cells which survived treatment based upon the original cells in the inoculum. Those tests expressed as increases in life span (% ILS) indicate the increased life span of the drug treated group compared to a control group.
(§2) As an indicator of reproducible activity, compounds of the invention and other known cancer chemotherapeutic agents were screened against L1210 lymphoid leukemia in vivo utilizing the mouse as a test species. Normal NCI protocols for this test require 10^5 seed cells of the L1210 cell line.
Cytosine Arabinoside must be given every three hours.
Mice were inoculated intraperitoneally on day 0 with a million cells of murine leukemia L1210. Drug was given qd days 1, 4 and 7. Increased life span is the mean increase in the treated group presented as a percentage of the mean life span of control mice.
Mice were inoculated intraperitoneally on day 0 with a million cells of murine leukemia L1210. Drugs were given qd days 1, 3, 5 and 7. Increased life span is presented as a percentage of the mean life span of control mice.

L1210 cells [7] = test: L1210 cells surviving treatment (% of original inoculum); type: in vivo, mouse; settings: single QD day 1 ip
Excerpt: as §1
as §2, with “line. However for the purposes of tests with the L1210 cell line in testing the compounds of the invention for antitumor activity, a log greater, i.e. 10^6 cells were utilized.” for “line.”
Tables 2-a and 2-b illustrate a dose response for Compound 19 against L1210 inoculated mice expressed as both increased life span compared to control and as the number of cells of the original inoculum surviving drug treatment. As is evident from the various regimens of drug treatment shown in Tables 2-a and 2-b, effective therapeutic effects are noted and a dose response to Compound 19 is evident. […] Cytosine Arabinoside must be given every three hours. Test results are given utilizing standard protocols based on mean survival time and are expressed as T/C percentages (treated animals/control animals).

[8] = tested on: L1210/6MP, 6TG, 6TGR cells; test: Life span of mice inoculated with L1210 resistant to 6MP, 6TG, 6TGR; type: in vivo, mouse; settings: for activity against drug resistant cells (words): mouse, in vivo
[9] = tested on: drug resistant cell lines; test: Generation of drug resistant cell lines

In the case of `Sc1ncnc2nc[nH]c12` [6-Mercaptopurine], the “Residual cells (% of control brain)” value (L1210 cells [1]) is given as 37%, the “Activity rating δT/δC” value [2] is given as 99 and the “inducement of drug resistant cell lines” value [3] is given as “inducement of drug resistant cell line occurs”. For the same compound, the “activity against adenocarcinoma” value (adenocarcinoma) was “highly active against adenocarcinoma”.
With `NS(=O)(=O)c1ncnc2c1ncn2[C@@H]1O[C@H](CO)[C@@H](O)[C@H]1O` [Compound 8, 9-β-D-Ribofuranosyl-9H-purine-6-sulfonamide] the Max. sol. dosage [4] was 480 mg/kg and the MTD ([5]; ip) was 173 mg/kg.
In the case of `NS(=O)(=O)c1ncnc2c1ncn2[C@@H]1O[C@H](CO)[C@@H](O)[C@@H]1O` [Compound 12, 9-β-D-Arabinofuranosyl-9H-purine-6-sulfonamide], the Max. sol. dosage [4] is reported as 173 mg/kg and the MTD ([5]; ip) is reported as 173 mg/kg.
Work on `NSc1ncnc2c1ncn2[C@H]1C[C@H](O)[C@@H](CO)O1` [Compound 14, 9-(2-Deoxy-β-D-erythro-pentofuranosyl)-9H-purine-6-sulfenamide] yielded a Max. sol. dosage [4] of 800 mg/kg and an MTD ([5]; ip) of 288 mg/kg.
For `N[S+]([O-])c1ncnc2c1ncn2[C@H]1C[C@H](O)[C@@H](CO)O1` (stereo partly drawn) [Compound 15, 9-(2-Deoxy-β-D-erythro-pentofuranosyl)-9H-ourine-6-sulfinamide], the “% ILS” value (L1210 cells [6]; single QD day 1 ip) was 33%, the “Cells surviving treatment (% of day 0 innoc.)” value (L1210 cells [7]) was 16% and the Max. sol. dosage [4] was 800 mg/kg. It also gave an MTD ([5]; ip) of 104 mg/kg.
`NS(=O)(=O)c1ncnc2c1ncn2[C@H]1C[C@H](O)[C@@H](CO)O1` [Compound 16, 9-(2-Deoxy-β-D-erythro-pentofuranosYl)-9H-purine-6-sulfonamide] showed a Max. sol. dosage [4] of 800 mg/kg and an MTD ([5]; ip) of 173 mg/kg.
For `NSc1nc(N)nc2c1ncn2[C@@H]1O[C@H](CO)[C@@H](O)[C@H]1O` [Compound 18, 2-amino-9-β-D-ribofuranosyl-9H-purine-6-sulfenamide], the “oral activity (words)” value (L1210 cells [6]) was “Oral activity is seen”, the “Activity against I.P. L1210 cells, T/C” value (L1210 cells [6]; oral 8 mg/kg, qd day 1) was 147.0% and the “Activity against I.P. L1210 cells, T/C” value (L1210 cells [6]; oral 13 mg/kg, qd day 1) was 147.0%. For the same compound, the “Activity against I.P. L1210 cells, T/C” value (L1210 cells [6]; oral 22 mg/kg, qd day 1) was 153.0%, the “% ILS” value (L1210 cells [6]; single agent day 1, Compound 19 173 mg/kg, Compound 18 22 mg/kg (Table 12)) was 51% and the “intracranial activity” value (L1210 cells [1]) was “active intracranially”. For the same compound, the “Activity against I.C. L1210 cells, Cell Kill” value (L1210 cells [1]) was 57.3 x, the “crossing of blood brain barrier / CNS penetration (words)” value (L1210 cells [1]) was “effectively cross the blood brain barrier” and the “Activity against I.P. L1210 cells resistant to 6MP, 6TG, 6TGR, T/C” value ([8]; 22 mg/kg, qd day 1) was 93.8%. The “activity against drug resistant cells (words)” value [8] was “shows no activity”, the Max. sol. dosage [4] was 22 mg/kg and the MTD ([5]; ip) was 22 mg/kg. The “generation of drug resistant cell lines (words)” value [9] was “does generate drug resistant cell lines; also recorded: generates drug resistant cells”.
With `Nc1nc(S(N)(=O)=O)c2ncn([C@@H]3O[C@H](CO)[C@@H](O)[C@H]3O)c2n1` [Compound 20, 2-amino-9-β-D-ribofuranosyl-9H-purine-6-sulfonamide] the “oral activity (words)” value (L1210 cells [6]) was “not present”, the “Activity against I.P. L1210 cells, T/C” value (L1210 cells [6]; oral 22 mg/kg, bid days 1,4,7) was 103.3% and the “Activity against I.P. L1210 cells, T/C” value (L1210 cells [6]; oral 37 mg/kg, bid days 1,4,7) was 103.3%. For the same compound, the “Activity against I.P. L1210 cells, T/C” value (L1210 cells [6]; oral 62 mg/kg, bid days 1,4,7) was 103.3%, the “oral activity (words)” value (L1210 cells [6]; listed as 6-sulfonamide analog) was “lack of oral activity” and the “intracranial activity” value (L1210 cells [1]) was “no intracranial activity is seen”. For the same compound, the “Activity against I.C. L1210 cells, Cell Kill” value (L1210 cells [1]) was 0.0 x, the “crossing of blood brain barrier / CNS penetration (words)” value (L1210 cells [1]) was “lack of oral activity and CNS penetration” and the “Activity against I.P. L1210 cells resistant to 6MP, 6TG, 6TGR, T/C” value ([8]; 22 mg/kg, bid days 1,4,7) was 106.7%. For the same compound, the “Activity against I.P. L1210 cells resistant to 6MP, 6TG, 6TGR, T/C” value ([8]; 37 mg/kg, bid days 1,4,7) was 130.0%, the “Activity against I.P. L1210 cells resistant to 6MP, 6TG, 6TGR, T/C” value ([8]; 62 mg/kg, bid days 1,4,7) was 163.3% and the “activity against drug resistant cells (words)” value [8] was “active”. The Max. sol. dosage [4] was 62 mg/kg and the MTD ([5]; ip) was 62 mg/kg.
In the case of `NSc1nc(N)nc2c1ncn2[C@H]1C[C@H](O)[C@@H](CO)O1` [Compound 22, 2-Amino-9-(2-deoxy-β-D-erythro-pentofuranosyl)-9H-purine-6-sulfenamide], the Max. sol. dosage [4] is reported as 173 mg/kg and the MTD ([5]; ip) is reported as 173 mg/kg.
For `Nc1nc([S+](N)[O-])c2ncn([C@H]3C[C@H](O)[C@@H](CO)O3)c2n1` (stereo partly drawn) [Compound 23, 2-amino-9-(2-deoxy-β-D-erythro-pentofuranosyl)-9H-purine-6-sulfinamide], the “in vivo antitumor activity” value (L1210 cells [6]; mouse, in vivo) was “good activity”, the Max. sol. dosage [4] was 480 mg/kg and the “water solubility” value [4] was “increased water solubility”. The MTD ([5]; ip) was 173 mg/kg.
Compound `Nc1nc(S(N)(=O)=O)c2ncn([C@H]3C[C@H](O)[C@@H](CO)O3)c2n1` [Compound 24, 2-Amino-9-(2-deoxy-β-D-erythro-pentofuranosyl)-9H-purine-6-sulfonamide] has a Max. sol. dosage [4] of 480 mg/kg and an MTD ([5]; ip) of 288 mg/kg.
In the case of `NSc1nc(N)nc2c1ncn2[C@@H]1O[C@@H]2COP(=O)(O)O[C@H]2[C@H]1O` [Compound 29, 2-Amino-9-β-D-ribofuranosylpurine-6-sulfenamide 3',5'-cyclic phosphate], the “% ILS” value (L1210 cells [6]; single QD day 1 ip) is reported as 59%, the “Cells surviving treatment (% of day 0 innoc.)” value (L1210 cells [7]) is reported as 1.7% and the Max. sol. dosage ([4]; in water) is reported as 480 mg/kg. It also gave an MTD [5] of 480 mg/kg.
In the case of `Nc1nc([S+](N)[O-])c2ncn([C@@H]3O[C@@H]4COP(=O)(O)O[C@H]4[C@H]3O)c2n1` (stereo partly drawn) [Compound 30, 2-Amino-9-β-D-ribofuranosylpurine-6-sulfinamide 3',5'-cyclic phosphate], the “% ILS” value (L1210 cells [6]; single QD day 1 ip) is reported as 59%, the “Cells surviving treatment (% of day 0 innoc.)” value (L1210 cells [7]) is reported as 1.7% and the Max. sol. dosage ([4]; in water) is reported as 288 mg/kg. The MTD [5] was 288 mg/kg.
For `NSc1nc(N)nc2c1ccn2[C@H]1C[C@H](O)[C@@H](CO)O1` [Compound 38, 2-Amino-7-(2-deoxy-β-D-erythro-pentofuranosyl)pyrrolo[2,3-d]pyrimidine-4-sulfenamide], the Max. sol. dosage [4] was 173 mg/kg and the MTD ([5]; ip) was 173 mg/kg.
For `Nc1ccn([C@@H]2O[C@H](CO)[C@@H](O)[C@@H]2O)c(=O)n1` [Cytosine Arabinoside], the “Residual cells (% of control brain)” value (L1210 cells [1]) is listed as 15%, the “Activity rating δT/δC” value [2] is listed as 73 and the “inducement of drug resistant cell lines” value [3] is listed as “inducement of drug resistant cell line occurs”.
